Reference: publication PMC8498988, “Scaffold Hybridization Strategy Leads to the Discovery of Dopamine D3 Receptor-Selective or Multitarget Bitopic Ligands Potentially Useful for Central Nervous System Disorders” (ACS Chemical Neuroscience, 2021)
Counter-ions that a name gives are not always drawn. Marks after values point to notes of the source that are not given here.

Tests used:
[1] = molecular target: D2R (Homo sapiens, UniProt P14416); assay: Radioligand competition binding at human D2R ([3H]N-methylspiperone, HEK293 membranes); set-up: expressed in transfected cells; host or cells: HEK293; conditions: for inhibition at 10 µM / inhibition percentage of the radioligand binding, D2R: test compound concentration of 10 μM; for inhibition at 10 µM: read-out: inhibition percentage of the radioligand binding, D2R; for inhibition percentage of the radioligand binding, D2R: 10 µM; for Ki: HEK 293 cells expressing hD2R, read-out: Ki ± SEM, D2R
Experimental: (§1) The novel hybrid derivatives 3–11 were tested at hD2R, hD3R, or hD4R stably expressed in HEK293 cells by competition binding assays, using [^3H]N-methylspiperone as the radioligand, to evaluate their D2-like affinity and subtype selectivity, following the previously reported procedures.[41],[45],[46]
(§2) Binding at dopamine D2-like receptors was determined using previously described methods.[41],[45],[46] Membranes were prepared from HEK293 cells stably expressing human D2, D3, or D4, grown in a 50:50 mix of Dulbecco’s minimal essential medium (DMEM) and Ham’s F12 culture media, supplemented with 20 mM HEPES, 2 mM L-glutamine, 0.1 mM nonessential amino acids, 1× antibiotic/antimycotic, 10% heat-inactivated fetal bovine serum, and 200 μg/mL hygromycin (Life Technologies, Grand Island, NY) and kept in an incubator at 37 °C and 5% CO2. Upon reaching 80–90% confluency, the cells were harvested using premixed Earle’s Balanced Salt Solution (EBSS) with 5 μM EDTA (Life Technologies) and centrifuged at 3000 rpm for 10 min at 21 °C. The supernatant was removed, and the pellet was resuspended in 10 mL hypotonic lysis buffer (5 mM MgCl2, 5 mM Tris, pH 7.4 at 4 °C) and centrifuged at 20,000 rpm for 30 min at 4 °C. The pellet was then resuspended in fresh EBSS buffer made from 8.7 g/L Earle’s Balanced Salts without phenol red (US Biological, Salem, MA), 2.2 g/L sodium bicarbonate, pH to 7.4. A Bradford protein assay (Bio-Rad, Hercules, CA) was used to determine the protein concentration, and membranes were diluted to 500 μg/mL and stored at −80 °C for later use. Radioligand competition binding experiments were conducted using thawed membranes. Test compounds were freshly dissolved in 30% DMSO and 70% H2O to a stock concentration of 100 μM. To assist the solubilization of free-base compounds, 10 μL of glacial acetic acid was added along with DMSO. Each test compound was then diluted into 13 half-log serial dilutions using 30% DMSO vehicle; the final test concentrations ranged from 10 μM to 10 pM. The previously frozen membranes were diluted in fresh EBSS to a 100 μg/mL (for D2 or D3) or 200 μg/mL (D4) stock for binding. Radioligand competition experiments were conducted in glass tubes containing 300 μL of fresh EBSS buffer, 50 μL of diluted test compound, 100 μL of membranes (10 μg of total protein for D2 or D3 and 20 μg of total protein for D4), and 50 μL of [^3H]N-methylspiperone (0.4 nM final concentration; PerkinElmer). Nonspecific binding was determined using 10 μM butaclamol (Sigma-Aldrich, St. Louis, MO), and total binding was determined with the 30% DMSO vehicle. All compound dilutions were tested in triplicate and the reaction was incubated for 1 h at room temperature. The reaction was terminated by filtration through Whatman GF/B filters, presoaked for 1 h in 0.5% polyethylenimine, using a Brandel R48 filtering manifold (Brandel Instruments, Gaithersburg, MD). The filters were washed three times with 3 mL of ice-cold EBSS buffer and transferred to scintillation vials. CytoScint liquid scintillation cocktail (3 mL, MP Biomedicals, Solon, OH) was added, and vials were counted using a PerkinElmer Tri-Carb 2910 TR liquid scintillation counter (Waltham, MA).

[2] = molecular target: T1, D4R (Homo sapiens, UniProt P21917); assay: Radioligand competition binding at human D4R ([3H]N-methylspiperone, HEK293 membranes); set-up: expressed in transfected cells; host or cells: HEK293; conditions: for inhibition at 10 µM / inhibition percentage of the radioligand binding, D4R: test compound concentration of 10 μM; for inhibition at 10 µM: read-out: inhibition percentage of the radioligand binding, D4R; for inhibition percentage of the radioligand binding, D4R: 10 µM; for Ki: HEK 293 cells expressing hD4R, read-out: Ki ± SEM, D4R
T1 sequence (P21917 1-419): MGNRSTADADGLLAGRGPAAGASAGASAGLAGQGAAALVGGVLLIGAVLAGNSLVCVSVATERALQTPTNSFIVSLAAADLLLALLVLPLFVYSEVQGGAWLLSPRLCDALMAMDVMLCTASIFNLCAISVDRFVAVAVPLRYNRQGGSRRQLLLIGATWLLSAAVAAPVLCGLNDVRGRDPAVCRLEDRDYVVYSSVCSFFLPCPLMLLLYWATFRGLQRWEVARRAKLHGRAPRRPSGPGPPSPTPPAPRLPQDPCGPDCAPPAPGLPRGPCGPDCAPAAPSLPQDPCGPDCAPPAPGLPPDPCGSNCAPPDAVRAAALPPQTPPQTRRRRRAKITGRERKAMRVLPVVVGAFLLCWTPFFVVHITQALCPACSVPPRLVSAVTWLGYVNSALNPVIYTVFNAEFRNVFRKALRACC
Experimental: as §1, §2

[3] = molecular target: D3R (Homo sapiens, UniProt P35462); assay: Radioligand competition binding at human D3R ([3H]N-methylspiperone, HEK293 membranes); set-up: expressed in transfected cells; host or cells: HEK293; conditions: for Ki: HEK 293 cells expressing hD3R, read-out: Ki ± SEM, D3R; for D2/D3: ratio of Ki values D2R/D3R; for D4/D3: ratio of Ki values D4R/D3R
Experimental: as §1, §2

Sequence of D2R (P14416 whole entry): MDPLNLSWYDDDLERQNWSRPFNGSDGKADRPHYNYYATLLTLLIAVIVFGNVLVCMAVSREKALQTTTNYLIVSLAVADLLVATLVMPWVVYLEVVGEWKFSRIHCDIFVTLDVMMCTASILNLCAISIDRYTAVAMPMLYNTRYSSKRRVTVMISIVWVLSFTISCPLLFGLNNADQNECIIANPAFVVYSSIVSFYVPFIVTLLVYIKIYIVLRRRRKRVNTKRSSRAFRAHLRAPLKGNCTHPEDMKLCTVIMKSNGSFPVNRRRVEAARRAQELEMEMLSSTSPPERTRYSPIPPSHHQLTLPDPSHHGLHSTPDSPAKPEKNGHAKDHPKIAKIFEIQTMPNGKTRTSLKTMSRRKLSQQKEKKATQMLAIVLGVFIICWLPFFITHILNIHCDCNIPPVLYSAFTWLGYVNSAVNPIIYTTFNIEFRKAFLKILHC
Sequence of D3R (P35462 whole entry): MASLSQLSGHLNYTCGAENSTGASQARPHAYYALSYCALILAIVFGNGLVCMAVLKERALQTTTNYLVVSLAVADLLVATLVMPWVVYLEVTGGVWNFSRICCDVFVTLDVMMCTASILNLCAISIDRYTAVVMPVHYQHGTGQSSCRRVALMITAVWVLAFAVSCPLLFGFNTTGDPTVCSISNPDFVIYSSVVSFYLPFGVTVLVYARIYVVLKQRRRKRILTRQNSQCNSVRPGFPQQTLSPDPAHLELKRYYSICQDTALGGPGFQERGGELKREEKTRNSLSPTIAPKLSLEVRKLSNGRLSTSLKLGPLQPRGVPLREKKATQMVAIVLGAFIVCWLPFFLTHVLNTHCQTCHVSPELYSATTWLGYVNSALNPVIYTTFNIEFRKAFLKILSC

Q: Which melting point does the source give for `O=C(NCCC(F)CN1CCN(c2cccc(Cl)c2Cl)CC1)C1COc2ccccc2O1` (stereo not drawn) (as salt: oxalate) [11a, N-(4-(4-(2,3-Dichlorophenyl)piperazin-1-yl)-3-fluorobutyl)-2,3-dihydrobenzo[b][1,4]dioxine-2-carboxamide] here?
A: 200 to 201 °C

Q: Which melting point does the source give for `O=C(NCCCCN1CCN(c2cccc(Cl)c2Cl)CC1)C1COCC(c2ccccc2)(c2ccccc2)O1` (stereo not drawn) (as salt: oxalate) [compound 3, N-(4-(4-(2,3-Dichlorophenyl)piperazin-1-yl)butyl)-6,6-diphenyl-1,4-dioxane-2-carboxamide] here?
A: 107 to 108 °C

Q: With `O=C(NCCC(F)CN1CCN(c2cccc(Cl)c2Cl)CC1)C1COCC(c2ccccc2)(c2ccccc2)O1` (stereo not drawn) (as salt: oxalate) [compound 5, N-(4-(4-(2,3-Dichlorophenyl)piperazin-1-yl)-3-fluorobutyl)-6,6-diphenyl-1,4-dioxane-2-carboxamide] as the compound, how does the melting point read?
A: 100 to 101 °C

Q: For `O=C(NCCCCN1CCN(c2cccc(Cl)c2Cl)CC1)C1COC(c2ccccc2)(c2ccccc2)CO1` (stereo not drawn) (as salt: oxalate) [compound 6, N-(4-(4-(2,3-Dichlorophenyl)piperazin-1-yl)butyl)-5,5-diphenyl-1,4-dioxane-2-carboxamide], which melting point is on record?
A: 94 to 95 °C

Q: For `O=C(NCCC(O)CN1CCN(c2cccc(Cl)c2Cl)CC1)C1COC(c2ccccc2)(c2ccccc2)CO1` (stereo not drawn) (as salt: oxalate) [compound 7, N-(4-(4-(2,3-Dichlorophenyl)piperazin-1-yl)-3-hydroxybutyl)-5,5-diphenyl-1,4-dioxane-2 Carboxamide], which melting point is on record?
A: 132 to 133 °C

Q: Which melting point does the source give for `O=C(NCCC(F)CN1CCN(c2cccc(Cl)c2Cl)CC1)C1COC(c2ccccc2)(c2ccccc2)CO1` (stereo not drawn) (as salt: oxalate) [compound 8, N-(4-(4-(2,3-Dichlorophenyl)piperazin-1-yl)-3-fluorobutyl)-5,5-diphenyl-1,4-dioxane-2-carboxamide] here?
A: 126 to 127 °C

Q: For `O=C(NCCCCN1CCN(c2cccc(Cl)c2Cl)CC1)C1COc2ccccc2O1` (stereo not drawn) (as salt: oxalate) [compound 9, N-(4-(4-(2,3-Dichlorophenyl)piperazin-1-yl)butyl)-2,3-dihydrobenzo[b][1,4]dioxine-2-carboxamide], which melting point is on record?
A: 167 to 168 °C

Q: Which melting point does the source give for `O=C(NCCC(O)CN1CCN(c2cccc(Cl)c2Cl)CC1)C1COCC(c2ccccc2)(c2ccccc2)O1` (single isomer, unassigned) (as salt: oxalate) [4a, N-(4-(4-(2,3-Dichlorophenyl)piperazin-1-yl)-3-hydroxybutyl)-6,6-diphenyl-1,4-dioxane-2-carboxamide] here?
A: 146 to 147 °C

Q: With `O=C(NCCC(O)CN1CCN(c2cccc(Cl)c2Cl)CC1)C1COc2ccccc2O1` (single isomer, unassigned) (as salt: oxalate) [10a, N-(4-(4-(2,3-Dichlorophenyl)piperazin-1-yl)-3-hydroxybutyl)-2,3-dihydrobenzo[b][1,4]dioxine-2-carboxamide] as the compound, how does the melting point read?
A: 88 to 89 °C

Q: For `O=C(NCCC(O)CN1CCN(c2cccc(Cl)c2Cl)CC1)C1COCC(c2ccccc2)(c2ccccc2)O1` (stereo not drawn) [4a, N-(4-(4-(2,3-Dichlorophenyl)piperazin-1-yl)-3-hydroxybutyl)-6,6-diphenyl-1,4-dioxane-2-carboxamide], which inhibition at 10 µM [1] is on record?
A: 39.5%

Q: What about the inhibition at 10 µM [2] of the same compound?
A: 39.2%

Q: And the Ki ([3]; [3H]N-methylspiperone)?
A: 0.164 ± 0.052 µM

Q: For `O=C(NCCC(O)CN1CCN(c2cccc(Cl)c2Cl)CC1)C1COCC(c2ccccc2)(c2ccccc2)O1` (stereo not drawn) [4b, N-(4-(4-(2,3-Dichlorophenyl)piperazin-1-yl)-3-hydroxybutyl)-6,6-diphenyl-1,4-dioxane-2-carboxamide], which “inhibition percentage of the radioligand binding, D2R” value [1] is on record?
A: 41% ^c

Q: And the “inhibition percentage of the radioligand binding, D4R” value [2]?
A: 54.4% ^c

Q: What about the Ki ([3]; [3H]N-methylspiperone) of the same compound?
A: 0.0771 ± 0.0255 µM

Q: Which results are given for `O=C(NCCC(O)CN1CCN(c2cccc(Cl)c2Cl)CC1)C1COc2ccccc2O1` (stereo not drawn) [10a, N-(4-(4-(2,3-Dichlorophenyl)piperazin-1-yl)-3-hydroxybutyl)-2,3-dihydrobenzo[b][1,4]dioxine-2-carboxamide]?
A: Ki [1]: 1.1 ± 0.125 µM; Ki [2]: 0.282 ± 0.076 µM; Ki ([3]; [3H]N-methylspiperone): 0.0441 ± 0.0082 µM; D2/D3 [3]: 25; D4/D3 [3]: 6

Q: For `O=C(NCCC(O)CN1CCN(c2cccc(Cl)c2Cl)CC1)C1COc2ccccc2O1` (stereo not drawn) [10b, N-(4-(4-(2,3-Dichlorophenyl)piperazin-1-yl)-3-hydroxybutyl)-2,3-dihydrobenzo[b][1,4]dioxine-2-carboxamide], which Ki [1] is on record?
A: 0.783 ± 0.019 µM

Q: And the Ki [2]?
A: 0.244 ± 0.054 µM

Q: And the Ki ([3]; [3H]N-methylspiperone)?
A: 0.0234 ± 0.0024 µM

Q: And the D4/D3 [3]?
A: 10

Q: Which inhibition at 10 µM [1] does the source give for `O=C(NCCC(F)CN1CCN(c2cccc(Cl)c2Cl)CC1)C1COc2ccccc2O1` (stereo not drawn) [11a, N-(4-(4-(2,3-Dichlorophenyl)piperazin-1-yl)-3-fluorobutyl)-2,3-dihydrobenzo[b][1,4]dioxine-2-carboxamide] here?
A: 10.6%

Q: What about the inhibition at 10 µM [2] of the same compound?
A: 29.4%

Q: What about the inhibition at 10 µM ([3]; test compound concentration of 10 μM, [3H]N-methylspiperone, read-out: inhibition percentage of the radioligand binding, D3R) of the same compound?
A: 54.8%

Q: What does the source list for `O=C(NCCC(F)CN1CCN(c2cccc(Cl)c2Cl)CC1)C1COc2ccccc2O1` (stereo not drawn) [11b, N-(4-(4-(2,3-Dichlorophenyl)piperazin-1-yl)-3-fluorobutyl)-2,3-dihydrobenzo[b][1,4]dioxine-2-carboxamide]?
A: inhibition percentage of the radioligand binding, D2R [1]: 8.7% ^c; inhibition percentage of the radioligand binding, D4R [2]: 26.6% ^c; inhibition percentage of the radioligand binding, D3R ([3]; test compound concentration of 10 μM, [3H]N-methylspiperone, 10 µM): 65.4% ^c

Q: For `O=C(NCCC(F)CN1CCN(c2cccc(Cl)c2Cl)CC1)C1COCC(c2ccccc2)(c2ccccc2)O1` (stereo not drawn) [compound 5, N-(4-(4-(2,3-Dichlorophenyl)piperazin-1-yl)-3-fluorobutyl)-6,6-diphenyl-1,4-dioxane-2-carboxamide], which inhibition at 10 µM [1] is on record?
A: 21.2%

Q: And the inhibition at 10 µM [2]?
A: 19.1%

Q: And the Ki ([3]; [3H]N-methylspiperone)?
A: 0.716 ± 0.178 µM

Q: For `O=C(NCCC(O)CN1CCN(c2cccc(Cl)c2Cl)CC1)C1COC(c2ccccc2)(c2ccccc2)CO1` (stereo not drawn) [compound 7, N-(4-(4-(2,3-Dichlorophenyl)piperazin-1-yl)-3-hydroxybutyl)-5,5-diphenyl-1,4-dioxane-2 Carboxamide], which Ki [1] is on record?
A: 0.526 ± 0.0282 µM

Q: What about the Ki [2] of the same compound?
A: 0.39 ± 0.046 µM

Q: What about the Ki ([3]; [3H]N-methylspiperone) of the same compound?
A: 0.0234 ± 0.0031 µM

Q: What about the D2/D3 [3] of the same compound?
A: 23

Q: What about the D4/D3 [3] of the same compound?
A: 17

Q: For `O=C(NCCC(F)CN1CCN(c2cccc(Cl)c2Cl)CC1)C1COC(c2ccccc2)(c2ccccc2)CO1` (stereo not drawn) [compound 8, N-(4-(4-(2,3-Dichlorophenyl)piperazin-1-yl)-3-fluorobutyl)-5,5-diphenyl-1,4-dioxane-2-carboxamide], which Ki [1] is on record?
A: 1.2 ± 0.21 µM

Q: What about the inhibition at 10 µM [2] of the same compound?
A: 43.6%

Q: And the Ki ([3]; [3H]N-methylspiperone)?
A: 0.295 ± 0.1 µM

Q: What about the D2/D3 [3] of the same compound?
A: 4
